Columns and labels:
rhP2X7 receptor [1] = experiment: rhP2X7 receptor activity in stably transfected HEK293 cells (calcium flux and change in membrane potential after agonist activation); type: cell-based, Macaca mulatta (Rhesus monkey); conditions: recombinant rhP2X7 receptor
Method: RhP2X7 receptor activity in the stably transfected HEK293 cells was monitored by measuring calcium flux and change in membrane potential subsequent to activation with potent agonists (ATP, Bz-ATP). The membrane potential was measured using the following protocol.
Stably transfected recombinant HEK293 cells were plated into the wells of a 384-well Costar plates (25 μL/well) in growth medium (DMEM without pyruvate (Invitrogen-11965-084) with 10% FBS (Invitrogen 10082-139), 100 U/ml P/S (Invitrogen 15140-148), and 100 ug/mL hygromycin (Roche, 843555) and the plates incubated for 24 hours at 37° C., 5% CO2. Then, 25 μL of membrane potential buffer (Blue dye, Molecular Devices, Sunnyvale, Calif.) was added to the medium and the cells incubated for 30 minutes at 37° C., 5% CO2. Next, about 30 to 100 nL of either analyte or antagonist control or 10 μL agonist 3′-O-(4-benzoylbenzoyl)-ATP (Bz-ATP) (at an EC80) was added to the medium in separate wells of the plates. After incubating the plates for 30 minutes at 37° C., 5% CO2, fluorescence was read using a fluorometric plate reader (FLIPR, Molecular Devices). Data were analyzed using the formula EC50=using (Max−Min); Signal to Noise Ratio (S/B)=Max/Min; Z′ Factor=1−[3*SD of Max)+(3*SD of Min)/(mean of Max−mean of Min).
Calcium flux was measured using the following FLIPR Calcium Flux Assay protocol (Molecular Devices, Sunnyvale, Calif.). […]

rhP2X7 receptor [2] = experiment: calcium flux protocol for high throughput screen using cells that express the rhP2X7 receptor; type: cell-based, Macaca mulatta (Rhesus monkey); conditions: agonist used in the example screening protocol; source of the value not stated
Method: The following is an example of a calcium flux protocol that can be used in a high throughput screen using cells that express the rhP2X7 receptor. The cells are grown to about 75-85% confluence, rinsed with DPBS (5.33 mM KCl, 0.44 mM KH2PO4, 0.3 mM Na2HPO4, 4 mM NaHCO3, 0.1% Glucose, 138 mM N-methyl glucamine), and dissociated with 0.05% trypsin. Then, about 20,000 cells are plated into multiple of the wells of multiwell plates in complete growth medium. The cells are incubated at 37° C. and 5% CO2 for about 20 to 24 hours. Next, about 20 μL FLUO-4 loading buffer (Invitrogen) is added to each of the wells and the cells incubated at RT for 60 minutes. Then, about 10 μL aliquots of each analyte to be tested (final concentration in DMSO about 0.1%) diluted in TR-40 quenching solution (Sigma #T2397) is added to a well containing cells. Controls include antagonists such as KN-62 and Ox-ATP and agonists such as Bz-ATP (at an EC80). The cells are incubated for about 10 minutes at RT.

SMILES | EC50 (rhP2X7 receptor [1]) [µM] | EC50 (rhP2X7 receptor [2]) [µM]
Nc1ncnc2c1ncn2[C@@H]1O[C@H](COP(=O)(O)OP(=O)(O)OP(=O)(O)O)[C@@H](OC(=O)c2ccc(C(=O)c3ccccc3)cc2)[C@H]1O [Bz-ATP, 3′-O-(4-benzoylbenzoyl)-ATP] | ~150 | 
Nc1ncnc2c1ncn2[C@@H]1O[C@H](COP(=O)(O)OP(=O)(O)OP(=O)(O)O)[C@@H](O)[C@H]1O [ATP] | ~3000 | 
Nc1ncnc2c1ncn2[C@@H]1O[C@H](COP(=O)(O)CP(=O)(O)OP(=O)(O)O)[C@@H](O)[C@H]1O [a,b-methylene ATP] |  | 350
